Source: patent publication US11242350B2, “Spirocyclic ROR-gamma modulators” (Escalier Biosciences B.V., priority 2018, dated 2022)

The compounds below were run against RORγt (Homo sapiens (Human), UniProt P51449) (assay: Gal4 ligand binding assay (RORγt Gal fusion luciferase reporter assay in HEK293T cells)). Conditions: RORγt inverse agonists in RORγt Gal fusion assay.
Type: cell-based
Procedure: The N-terminal DNA binding domains (DBD) of the native RORγ and RORγt receptors have been substituted with that of the yeast GAL4-DBD and stably transfected in HEK293T cells that also stably express luciferase under the regulation by upstream activation sequence of yeast Gal4. These cells constitutively express high level RORγ activity due to binding of endogenous co-factors. Both agonist and inverse agonist activity can be detected. The assay was performed according to kit manufacturer's instructions as follows. 10 mM compound stocks were diluted serially 1:3 with DMSO and further diluted with provided media to generate 10 titration points from 60 μM to 3 nM. These treatment conditions were added to the plates as 2× media in 100 μL volume. Each plate includes a positive control with 10 titration points as well as 6 negative control wells with vehicle only, with final DMSO concentration of 0.2%. RORγ reporter cells were rapidly thawed and added to the plates in 100 μL volume. The plates were incubated for 24 h in a 37° C. humidified 5% CO2 incubator. Media was removed before the addition of room temperature luciferous detection substrate. After 5 minute incubation, relative light units (RLUs) were quantified using a plate reading luminometer. Data was normalized to […] with only 0.2%0DMSO. Before establishing internal controls, ursolic acid was used as control.

Sequence of RORγt (P51449 269-508): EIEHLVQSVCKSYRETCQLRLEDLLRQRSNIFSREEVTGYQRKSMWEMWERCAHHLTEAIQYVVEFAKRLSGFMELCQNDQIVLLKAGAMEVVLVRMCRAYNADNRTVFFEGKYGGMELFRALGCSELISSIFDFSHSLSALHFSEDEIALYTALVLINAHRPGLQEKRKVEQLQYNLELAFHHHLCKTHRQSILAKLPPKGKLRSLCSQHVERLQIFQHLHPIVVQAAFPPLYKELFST

Structure (SMILES)	IC50 [nM]
CCc1cc(CN2CC3(C2)CN(S(C)(=O)=O)C3)ccc1-c1ccc(C(O)(C(F)(F)F)C(F)(F)F)cc1F [Example 34, 2-(2′-ethyl-2-fluoro-4′-((6-(methylsulfonyl)-2,6-diazaspiro[3.3]heptan-2-yl)methyl)-[1,1′-biphenyl]-4-yl)-1,1,1,3,3,3-hexafluoropropan-2-ol]	< 50
COc1cc(CN2CC3(C2)CN(S(C)(=O)=O)C3)ccc1-c1ccc(C(O)(C(F)(F)F)C(F)(F)F)cc1C [Example 57, 1,1,1,3,3,3-hexafluoro-2-(2′-methoxy-2-methyl-4′-((6-(methylsulfonyl)-2,6-diazaspiro[3.3]heptan-2-yl)methyl)-[1,1′-biphenyl]-4-yl)propan-2-ol]	< 50
CCc1cc(CN2CC3(C2)CN(S(C)(=O)=O)C3)ccc1-c1ccc(C(O)(C(F)(F)F)C(F)(F)F)cc1C [Example 39, 2-(2′-ethyl-2-methyl-4′-((6-(methylsulfonyl)-2,6-diazaspiro[3.3]heptan-2-yl)methyl)-[1,1′-biphenyl]-4-yl)-1,1,1,3,3,3-hexafluoropropan-2-ol]	< 50
CCc1cc(CN2CC3(C2)CN(S(=O)(=O)C2CC2)C3)ccc1-c1ccc(C(O)(C(F)(F)F)C(F)(F)F)cc1 [Example 41, 2-(4′-((6-(cyclopropylsulfonyl)-2,6-diazaspiro[3.3]heptan-2-yl)methyl)-2′-ethyl-[1,1′-biphenyl]-4-yl)-1,1,1,3,3,3-hexafluoropropan-2-ol]	50 to 250
CCc1cc(CN2CCC3(CCN(S(C)(=O)=O)C3)C2)ccc1-c1ccc(C(O)(C(F)(F)F)C(F)(F)F)cc1 (centres unmarked) [Example 31, 2-(2′-ethyl-4′-((7-(methylsulfonyl)-2,7-diazaspiro[4.4]nonan-2-yl)methyl)-[1,1′-biphenyl]-4-yl)-1,1,1,3,3,3-hexafluoropropan-2-ol]	< 50
C=C(C)c1cc(CN2CC3(C2)CN(S(C)(=O)=O)C3)ccc1-c1ccc(C(O)(C(F)(F)F)C(F)(F)F)cc1 [Example 44, 1,1,1,3,3,3-hexafluoro-2-(4′-((6-(methylsulfonyl)-2,6-diazaspiro[3.3]heptan-2-yl)methyl)-2′-(prop-1-en-2-yl)-[1,1′-biphenyl]-4-yl)propan-2-ol]	< 50
CS(=O)(=O)N1CC2(CN(Cc3ccc(-c4ccc(C(O)(C(F)(F)F)C(F)(F)F)cc4)c(Cl)c3)C2)C1 [Example 47, 2-(2′-chloro-4′-((6-(methylsulfonyl)-2,6-diazaspiro[3.3]heptan-2-yl)methyl)-[1,1′-biphenyl]-4-yl)-1,1,1,3,3,3-hexafluoropropan-2-ol]	> 250
CCc1cc(CN2CC3(C2)CN(S(C)(=O)=O)C3)ccc1-c1ccc(C(O)(C(F)(F)F)C(F)(F)F)cc1Cl [Example 75, 2-(2-chloro-2′-ethyl-4′-((6-(methylsulfonyl)-2,6-diazaspiro[3.3]heptan-2-yl)methyl)-[1,1′-biphenyl]-4-yl)-1,1,1,3,3,3-hexafluoropropan-2-ol]	< 50
CCc1cc(CN2CC3(C2)CN(C(=O)OC)C3)ccc1-c1ccc(C(O)(C(F)(F)F)C(F)(F)F)cc1 [Example 40, methyl 6-((2-ethyl-4′-(1,1,1,3,3,3-hexafluoro-2-hydroxypropan-2-yl)-[1,1′-biphenyl]-4-yl)methyl)-2,6-diazaspiro[3.3]heptane-2-carboxylate]	50 to 250
CCc1cc(CN2CC3(C2)CN(S(C)(=O)=O)C3)ncc1-c1ccc(C(O)(C(F)(F)F)C(F)(F)F)cc1C [Example 64, 2-(4-(4-ethyl-6-((6-(methylsulfonyl)-2,6-diazaspiro[3.3]heptan-2-yl)methyl)pyridin-3-yl)-3-methylphenyl)-1,1,1,3,3,3-hexafluoropropan-2-ol]	< 50
CCc1cc(CN2CC3(C2)CN(C(C)=O)C3)ccc1-c1ccc(C(O)(C(F)(F)F)C(F)(F)F)cc1 [Example 48, 1-(6-((2-ethyl-4′-(1,1,1,3,3,3-hexafluoro-2-hydroxypropan-2-yl)-[1,1′-biphenyl]-4-yl)methyl)-2,6-diazaspiro[3.3]heptan-2-yl)ethan-1-one]	> 250
CC(C)c1c(F)c(CN2CC3(C2)CN(S(C)(=O)=O)C3)cc(F)c1-c1ccc(C(O)(C(F)(F)F)C(F)(F)F)cc1Cl [Example 87, 2-(2-chloro-3′,6′-difluoro-2′-isopropyl-4′-((6-(methylsulfonyl)-2,6-diazaspiro[3.3]heptan-2-yl)methyl)-[1,1′-biphenyl]-4-yl)-1,1,1,3,3,3-hexafluoropropan-2-ol]	< 50
CCc1cc(CN2CC3(CSC3)C2)ccc1-c1ccc(C(O)(C(F)(F)F)C(F)(F)F)cc1 [Example 28, 2-(4′-((2-thia-6-azaspiro[3.3]heptan-6-yl)methyl)-2′-ethyl-[1,1′-biphenyl]-4-yl)-1,1,1,3,3,3-hexafluoropropan-2-ol]	> 250
CCc1cc(CN2CC3(C2)CN(S(C)(=O)=O)C3)cnc1-c1ccc(C(O)(C(F)(F)F)C(F)(F)F)cc1C [Example 62, 2-(4-(3-ethyl-5-((6-(methylsulfonyl)-2,6-diazaspiro[3.3]heptan-2-yl)methyl)pyridin-2-yl)-3-methylphenyl)-1,1,1,3,3,3-hexafluoropropan-2-ol]	50 to 250
CCc1cc(CN2CC3(CCN(S(C)(=O)=O)CC3)C2)ccc1-c1ccc(C(O)(C(F)(F)F)C(F)(F)F)cc1 [Example 33, 2-(2′-ethyl-4′-((7-(methylsulfonyl)-2,7-diazaspiro[3.5]nonan-2-yl)methyl)-[1,1′-biphenyl]-4-yl)-1,1,1,3,3,3-hexafluoropropan-2-ol]	50 to 250
CCc1cc(CN2CCC(S(C)(=O)=O)CC2)ccc1-c1ccc(C(O)(C(F)(F)F)C(F)(F)F)cc1 [Example 10, 2-(2′-ethyl-4′-((4-(methylsulfonyl)piperidin-1-yl)methyl)-[1,1′-biphenyl]-4-yl)-1,1,1,3,3,3-hexafluoropropan-2-ol]	< 50
CCc1cc(CN2CCCC3(C2)CN(S(C)(=O)=O)C3)ccc1-c1ccc(C(O)(C(F)(F)F)C(F)(F)F)cc1 [Example 5, 2-(2′-ethyl-4′-((2-(methylsulfonyl)-2,6-diazaspiro[3.5]nonan-6-yl)methyl)-[1,1′-biphenyl]-4-yl)-1,1,1,3,3,3-hexafluoropropan-2-ol]	< 50
CCc1cc(CN2CC3(CCN(S(C)(=O)=O)C3)C2)ccc1-c1ccc(C(O)(C(F)(F)F)C(F)(F)F)cc1 [Example 6, 2-(2′-ethyl-4′-((6-(methylsulfonyl)-2,6-diazaspiro[3.4]octan-2-yl)methyl)-[1,1′-biphenyl]-4-yl)-1,1,1,3,3,3-hexafluoropropan-2-ol]	50 to 250
CS(=O)(=O)N1CC2(CN(Cc3ccc(-c4ccc(C(O)(C(F)(F)F)C(F)(F)F)cc4)c(Br)c3)C2)C1 [Example 45, 2-(2′-bromo-4′-((6-(methylsulfonyl)-2,6-diazaspiro[3.3]heptan-2-yl)methyl)-[1,1′-biphenyl]-4-yl)-1,1,1,3,3,3-hexafluoropropan-2-ol]	50 to 250
CCc1cc(CN2CC(CNS(C)(=O)=O)C2)ccc1-c1ccc(C(O)(C(F)(F)F)C(F)(F)F)cc1 [Example 32, N-((1-((2-ethyl-4′-(1,1,1,3,3,3-hexafluoro-2-hydroxypropan-2-yl)-[1,1′-biphenyl]-4-yl)methyl)azetidin-3-yl)methyl)methanesulfonamide]	> 250
